From paper PMC2981816, “Oxalyl retro-peptide gelators. Synthesis, gelation properties and stereochemical effects” (Beilstein Journal of Organic Chemistry, 2010)

Columns and labels:
Assay type in all cases: physicochemical
[1] = TEM of gel networks (PWK negative staining), fiber diameters; conditions: water/DMSO gel
From the text: TEM images of diastereomeric (S,S)-1a and (S,R)-1a water/DMSO gels (Figure 2 and Figure 3) show highly distinct morphology of gel networks. In the first gel rather straight fibers and fiber bundles with diameters in the range of 40–100 nm could be observed. […] As observed earlier for other gel systems, gelator effectiveness Geff depends not only solubility but also depends on the thickness of fibers constituting the network. […] The TEM observed thicknesses of gel aggregates existing in water/DMSO and toluene gels could be also correlated with gelator effectiveness (Geff, mL, see Table 1 and Table 2). It appears that (S,R)-1b (Geff 19.5 mL, water/DMSO gel) organized in thinner fibers is more than twice effective a gelator than its diasteroisomer (S,S)-1a (Geff 8.0 mL, water/DMSO gel) which forms thicker fiber bundles. In the toluene gel, (S,R)-1b organizes into wide and short tapes with low networking capacity which is reflected in a very low (Geff 0.15 mL) gelator effectiveness. page 11: TEM and SEM investigations: transmission electron micrographs were taken on an EM 10 A Zeiss or FEI Morgagni 268D transmission electron microscope. A small amount of sample was placed on carbon-coated grid (copper, 100 mesh). The sample was negatively stained with PWK (dipotassium phosphotungstate). […]

[2] = Gelation test: gelator effectiveness (Geff) and minimal gelation concentration in solvents and solvent mixtures
[3] = as above; parameters: key to Gelator effectiveness (Geff): sol.: soluble; ins.: insoluble; cr.: crystallization; [A]: gel/sol mixture; conditions: for Gelator effectiveness (Geff): Table 1
Description: Gelation observed for selected gelator–solvent pairs is expressed by gelator effectiveness (Geff, mL) corresponding to the maximal volume of solvent that could be immobilized by 10 mg of the gelator (Table 1). […] However, 3a and 5a also gelled small to moderate volumes of EtOH and rac-2-octanol, whilst Leu incorporating 1a formed gels with the more lipophilic solvents, decalin and tetralin. […] Apparently, the retro-peptides incorporating aliphatic and aromatic amino acids are less versatile gelators compared to retro-peptides containing […] amino acid fragments. The latter points to the importance of intermolecular lipophilic interactions for the stabilization of gel assemblies being stronger in the case of identical amino acids either lipophilic or aromatic, and weaker for mixed aromatic-lipophilic amino acid fragments present in the gelator molecule.

fiber / fiber bundle diameter [1]: 40–100 nm
solubility in water [2]: insoluble
Gelator effectiveness (Geff) ([3]; max. volume immobilized by 10 mg gelator, CH2Cl2): ins.
Gelator effectiveness (Geff) ([3]; max. volume immobilized by 10 mg gelator, CH3CN): cr.
Gelator effectiveness (Geff) ([3]; max. volume immobilized by 10 mg gelator, EtOH): sol.
Gelator effectiveness (Geff) ([3]; max. volume immobilized by 10 mg gelator, H2O/DMF mixture, given as volume + volume): 5.84+3.25 mL
Gelator effectiveness (Geff) ([3]; max. volume immobilized by 10 mg gelator, H2O/DMSO mixture, given as volume + volume): 5.09+2.98 mL
Gelator effectiveness (Geff) ([3]; max. volume immobilized by 10 mg gelator, THF): sol.
Gelator effectiveness (Geff) ([3]; max. volume immobilized by 10 mg gelator, decalin): 0.2 mL
Gelator effectiveness (Geff) ([3]; max. volume immobilized by 10 mg gelator, p-xylene): ins.
Gelator effectiveness (Geff) ([3]; max. volume immobilized by 10 mg gelator, tetralin): 1.8 mL
Gelator effectiveness (Geff) ([3]; max. volume immobilized by 10 mg gelator, toluene): cr.
Gelator effectiveness (Geff) ([3]; max. volume immobilized by 10 mg gelator, ±2-octanol): ins.
Gelator effectiveness (Geff) ([3]; maximal volume of solvent immobilized by 10 mg of gelator, solvent H2O): ins.
Geff, total volume ([3]; water/DMSO gel, total of both solvent volumes, 10 mg gelator): 8.0 mL
times more effective in gelation than 3a and 5a ([3]; water/DMSO or DMF mixtures): more than 2 times
SMILES: CC(C)C[C@H](NC(=O)[C@H](CC(C)C)NC(=O)C(=O)N[C@@H](CC(C)C)C(=O)N[C@@H](CC(C)C)C(=O)O)C(=O)O [(S,S)-1a, (S,S)-bis(LeuLeu)]
